These results are taken from PMC11412489, “Coumarin derivatives as new anti-biofilm agents against Staphylococcus aureus” (PLOS ONE, 2024).

By inhibition is commonly meant the relative decrease from the control value, in per cent.

In assay [1] the test system is biofilm of S. aureus ATCC 6538. The assay is described as follows: 96-well plate crystal violet assay for biofilm inhibition. Format: cell-based, Staphylococcus aureus. Conditions: at 100 μg/mL, biofilm of S. aureus, 24 hours; for inhibition at 100 µg/mL: Staphylococcus aureus, ATCC6538, read-out: Antibiofilm Activity (% Inhibition ± SEM). The procedure: The quantitative determination of biofilm inhibition was carried out by the crystal violet assay on a sterile 96-well plate with slight modifications. The glycerol stock of S. aureus was revived overnight at 37°C at 80 rpm. The overnight culture was then diluted 100 folds in fresh BHI broth, supplemented with 0.25% glucose. The cell density was adjusted to 1×10^7 and 195μL of the cell suspension was added in 96-well plate. […] Following that, the plate was washed with sterile distilled water in order to decant the non-adherent cells, and media. The plate was then dried at 60°C for 1 hour, and 200 μL of 0.1% (w/v) crystal violet was added to stain biofilm for 20 minutes. The plate was washed again, air dried, and dispensed 30% (v/v) acetic acid in each well to dissolve the biofilm. The inhibition of biofilm formation was analyzed by measuring the absorbance at 595 nm using the microplate reader (Multiskan Sky, Thermo Scientific, USA). The percent inhibition of biofilm formation was calculated via the following formula: 100−ƛTreated−ƛBlank/ƛControl−ƛBlank×100 Whereƛ=absorbance

The next assay relates to S. aureus. As to the kind of experiment: Antibacterial activity (bacterial growth inhibition). Format: cell-based, Staphylococcus aureus. Conditions: at 100 μg/mL; for inhibition at 100 µg/mL: Staphylococcus aureus, read-out: Antibacterial Activity (% Inhibition ± SEM).

“Also recorded” adds a separate entry of the source.

With `Cc1ccc2oc(=O)c(/C=N/Nc3nc(-c4ccc(Cl)cc4)cs3)c(Cl)c2c1` [Compound 7, (E)-4-Chloro-3-((2-(4-(4-chlorophenyl)thiazol-2-yl)hydrazono)methyl)-6-methyl-2H-chromen-2-one], the “Antibiofilm Activity (% Inhibition ± SEM)” value in assay [1] is “No Inhibition”. The inhibition at 100 µg/mL in the assay on S. aureus is 41 ± 11.1%.
Take `O=c1oc2ccccc2cc1-c1csc(N/N=C/c2ccccc2)n1` [Compound 16, (E)-3-(2-(2-Benzylidenehydrazinyl)thiazol-4-yl)-2H-chromen-2-one]: in assay [1], the “Antibiofilm Activity (% Inhibition ± SEM)” value was “No inhibition”.
On to `O=c1oc2ccccc2cc1-c1csc(N/N=C/c2ccccc2[N+](=O)[O-])n1` [Compound 21, (E)-3-(2-(2-(2-Nitrobenzylidene)hydrazinyl)thiazol-4-yl)-2H-chromen-2-one], for which the “Antibiofilm Activity (% Inhibition ± SEM)” value in assay [1] was “No Inhibition”.
`C/C(=N\Nc1nc(-c2ccc(C#N)cc2)cs1)c1cc2ccccc2oc1=O` [Compound 14, (E)-4-(2-(2-(1-(2-Oxo-2H-chromen-3-yl)ethylidene)hydrazinyl)thiazol-4-yl)benzonitrile]: the inhibition at 100 µg/mL was determined as 68 ± 6.63% in assay [1] and 61 ± 9.33% in the assay on S. aureus. Moreover, the “Antibiofilm Activity (% Inhibition ± SEM)” value in assay [1] was “induced biofilm inhibition; also recorded: dual anti-bacterial and anti-biofilm effect”.
For `C/C(=N\NC(N)=S)c1cc2ccccc2oc1=O` [Compound 9, (E)-2-(1-(2-Oxo-2H-chromen-3-yl)ethylidene)hydrazinecarbothioamide], in assay [1], the inhibition at 100 µg/mL amounted to 22% and the “Antibiofilm Activity (% Inhibition ± SEM)” value was “No Inhibition”. In the assay with S. aureus, the inhibition at 100 µg/mL came out at 55 ± 5.43%.
As for `Cc1ccc2oc(=O)c(/C=N/NC(N)=S)c(Cl)c2c1` [Compound 1, (E)-2-((4-Chloro-6-methyl-2-oxo-2H-chromen-3-yl)methylene)hydrazinecarbothioamide], the “Antibiofilm Activity (% Inhibition ± SEM)” value in assay [1] is “inactive”. The “Antibacterial Activity (% Inhibition ± SEM)” value in the assay with S. aureus was “inactive”.
`COc1ccc(-c2csc(N/N=C/c3c(Cl)c4cc(C)ccc4oc3=O)n2)cc1` [Compound 8, (E)-4-Chloro-3-((2-(4-(4-methoxyphenyl)thiazol-2-yl)hydrazono)methyl)-6-methyl-2H-chromen-2-one]: in assay [1], the inhibition at 100 µg/mL came out at 66 ± 5.11%; the “Antibiofilm Activity (% Inhibition ± SEM)” value is “induced biofilm inhibition; also recorded: dual anti-bacterial and anti-biofilm effect”. The inhibition at 100 µg/mL in the assay on S. aureus turned out to be 52 ± 5.08%.
On to `Cc1ccc2oc(=O)c(/C=N/Nc3nc(-c4ccc(Br)cc4)cs3)c(Cl)c2c1` [Compound 6, (E)-3-((2-(4-(4-Bromophenyl)thiazol-2-yl)hydrazono)methyl)-4-chloro-6-methyl-2H-chromen-2-one], for which, in assay [1], the inhibition at 100 µg/mL amounted to 61 ± 4.05%; the “Antibiofilm Activity (% Inhibition ± SEM)” value was “induced biofilm inhibition; also recorded: dual anti-bacterial and anti-biofilm effect”. Moreover, in the assay on S. aureus, the inhibition at 100 µg/mL is 72 ± 7.22%.
For `C/C(=N\Nc1nc(-c2ccc(Cl)c(Cl)c2)cs1)c1cc2ccccc2oc1=O` [Compound 12, (E)-3-(1-(2-(4-(3,4-Dichlorophenyl)thiazol-2-yl)hydrazono)ethyl)-2H-chromen-2-one], in assay [1], the “Antibiofilm Activity (% Inhibition ± SEM)” value is given as “No Inhibition”.
In the case of `O=c1oc2ccccc2cc1-c1csc(N/N=C/c2cccc(Cl)c2)n1` [Compound 18, (E)-3-(2-(2-(3-Chlorobenzylidene)hydrazinyl)thiazol-4-yl)-2H-chromen-2-one], the inhibition at 100 µg/mL in assay [1] worked out at 25 ± 5.26%; in the assay with S. aureus it was 32 ± 8.97%.
For the molecule `C/C(=N\Nc1nc(-c2ccccc2O)cs1)c1cc2ccccc2oc1=O` [Compound 15, (E)-3-(1-(2-(4-(2-Hydroxyphenyl)thiazol-2-yl)hydrazono)ethyl)-2H-chromen-2-one], in assay [1], the inhibition at 100 µg/mL turned out to be 34 ± 5.11% and the “Antibiofilm Activity (% Inhibition ± SEM)” value is recorded as “induced biofilm inhibition”. In addition, in the assay with S. aureus, the inhibition at 100 µg/mL is 73 ± 7.16%.
On to `C/C(=N\Nc1nc(-c2ccc(Cl)cc2)cs1)c1cc2ccccc2oc1=O` [Compound 11, (E)-3-(1-(2-(4-(4-Chlorophenyl)thiazol-2-yl)hydrazono)ethyl)-2H-chromen-2-one], for which the inhibition at 100 µg/mL in assay [1] turned out to be 70 ± 7.09%; in the assay on S. aureus, 88 ± 4.32%. Besides, the “Antibiofilm Activity (% Inhibition ± SEM)” value in assay [1] was “induced biofilm inhibition; also recorded: dual anti-bacterial and anti-biofilm effect”.
As to `O=c1oc2ccccc2cc1-c1csc(N/N=C/c2ccc(Cl)cc2Cl)n1` [Compound 20, (E)-3-(2-(2-(2,4-Dichlorobenzylidene)hydrazinyl)thiazol-4-yl)-2H-chromen-2-one], the “Antibiofilm Activity (% Inhibition ± SEM)” value in assay [1] was “No Inhibition”.
On to `Cc1ccc2oc(=O)c(/C=N/Nc3nc(-c4ccc(Cl)cc4Cl)cs3)c(Cl)c2c1` [Compound 5, (E)-4-Chloro-3-((2-(4-(2,4-dichlorophenyl)thiazol-2-yl)hydrazono)methyl)-6-methyl-2H-chromen-2-one], for which the “Antibiofilm Activity (% Inhibition ± SEM)” value in assay [1] is “No Inhibition”. The inhibition at 100 µg/mL in the assay with S. aureus was 36 ± 8.77%.
Regarding `O=c1oc2ccccc2cc1-c1csc(N/N=C/c2ccc(Cl)cc2)n1` [Compound 19, (E)-3-(2-(2-(4-Chlorobenzylidene)hydrazinyl)thiazol-4-yl)-2H-chromen-2-one], in assay [1], the inhibition at 100 µg/mL came out at 37 ± 6.98%. The “Antibacterial Activity (% Inhibition ± SEM)” value in the assay on S. aureus is “No Inhibition”.
With `C/C(=N\Nc1nc(-c2cccc([N+](=O)[O-])c2)cs1)c1cc2ccccc2oc1=O` [Compound 13, (E)-3-(1-(2-(4-(3-Nitrophenyl)thiazol-2-yl) hydrazono)ethyl)-2H-chromen-2-one], the “Antibiofilm Activity (% Inhibition ± SEM)” value in assay [1] was “No Inhibition”. The “Antibacterial Activity (% Inhibition ± SEM)” value with S. aureus is listed as “No Inhibition”.
